Test results from a melting point compilation (Tetko et al.).

Structure (SMILES)	melting point
CCC(c1ccc(Br)cc1)N1CCNCC1 (configuration not stated)	65 to 67 °C
CC1CCN(S(=O)(=O)N2CCNCC2)CC1	61 to 63 °C
Cn1cccc(C(=O)O)c1=O	185 to 187 °C
Cc1ccc(S(=O)(=O)OC2CCCC2c2ccccc2)cc1 (configuration not stated)	65 to 67 °C
CN(C)S(=O)(=O)c1ccc(N2CCOCC2)c(C(=O)O)c1	218 to 220 °C
O=C(Nc1cccc2ccccc12)OCC(F)(F)F	109 to 111 °C
CCc1ccc(-c2csc(NC(=O)C(C)Cl)n2)cc1 (configuration not stated)	108 to 110 °C
CC(=O)NC(CC(=O)O)c1ccccc1 (configuration not stated)	165 to 167 °C
CC(C)NC(=O)C(C#N)=CN(C)C	113 to 115 °C
N=C1N=C2C=CC(Br)=CN2Cc2ccccc21	178 to 180 °C
Cc1ccccc1OCCCC(=O)Nc1ccc(CN)cc1	82 to 84 °C
Nc1nncc(-c2cccc(Cl)c2)n1	219 to 221 °C
COc1ccc2[nH]cc(C(=O)CC#N)c2c1	289 to 291 °C
O=C(O)c1cnc(-c2ccoc2)s1	226 to 228 °C
O=C(O)COc1ccc(Cl)c2ccccc12	162 to 164 °C
COC1CC(C(=O)O)N(C(=O)OC(C)(C)C)C1 (configuration not stated)	79 to 81 °C
O=C(O)c1ccc(-c2nc3ccccc3s2)s1	254 to 256 °C
Nc1cncc(Cl)n1	149 to 151 °C
FC(F)(F)c1ccc2sc(S)nc2c1	221 to 223 °C
CC(=O)Nc1ccc2c(c1)CN(C(=O)OC(C)(C)C)CC2	110 to 112 °C
O=C(O)Cc1ccc(OC(F)F)cc1	78 to 80 °C
Cc1ccc2sc(C3CCNCC3)nc2c1	111 to 113 °C
O=C(O)c1cccc(CO)c1	111 to 113 °C
COc1ccccc1N(CCC#N)C(=O)C(C)Cl (configuration not stated)	71 to 73 °C

Structure (SMILES)	melting point
COC(=O)c1cc2c(nc1N)CCC2	132 to 134 °C
O=C(O)c1ccc(F)c(COCc2ccccc2)c1	95 to 97 °C
CC1CCCCC1NC(=O)NC(=O)CCl (configuration not stated)	126 to 128 °C
O=C(O)C1CCCOC1c1ccccc1 (configuration not stated)	56 to 58 °C
COc1cc(C#N)ccc1OCC1CCCO1 (configuration not stated)	86 to 88 °C
CCCCc1ccc(C(=O)Nc2sccc2C(=O)O)cc1	183 to 185 °C
O=C1CCCC(=O)N1Cc1cccc(Br)c1	76 to 78 °C
O=C(O)CCCNC(=O)c1ccc(F)cc1	93 to 95 °C
ClCc1coc(-c2cccs2)n1	45 to 57 °C
CC(=O)c1ccc(NS(=O)(=O)c2ccc(Cl)cc2)cc1	132 to 134 °C
O=C(O)c1cccnc1-n1cnc2ccccc21	249 to 251 °C
C/C(Cn1nc(C)cc1C)=N\O	114 to 116 °C
NC(=S)CN1CCOCC1	178 to 180 °C
O=C1CCC2(CC1)NC(=O)NC2=O	199 to 201 °C
Nc1cccc(C(=O)NCC(F)(F)F)c1	118 to 120 °C
O=c1[nH]c2c(s1)CCCC2	141 to 143 °C
O=C(O)c1cc(S(=O)(=O)Cl)c(Br)cc1F	147 to 149 °C
NS(=O)(=O)c1ccccc1Cn1ccnc1	149 to 151 °C
CC(N)c1ccc(NS(C)(=O)=O)cc1 (configuration not stated)	142 to 144 °C
COc1ccccc1CNCCO	65 to 67 °C
NCCS(=O)(=O)N1CCSCC1	59 to 61 °C
Nc1cccc(CS(=O)(=O)Cc2ccccc2)c1	120 to 122 °C
Cc1ccc(C)c(C(=O)CCC(=O)O)c1	80 to 84 °C
O=C(O)c1ccccc1SCC(=O)N1CCc2ccccc21	152 to 154 °C

Structure (SMILES)	melting point
O=C(CCl)c1cc(Cl)sc1Cl	43 to 45 °C
CC1(C(=O)O)CCCN1C(=O)c1ccccc1 (configuration not stated)	205 to 207 °C
Cc1sc2nc(CN3CCCC3)nc(Cl)c2c1C	68 to 72 °C
Cc1c(S(=O)(=O)Cl)cnn1-c1ccc(F)cc1	96 to 98 °C
Cc1csc(NC(=O)CCl)n1	127 to 129 °C
Cc1ccc(C(=O)O)cc1NC(=O)c1ccc(Br)cc1	309 to 311 °C
Cc1cc(C)c(S(=O)(=O)Cl)c(C)c1NS(C)(=O)=O	175 to 177 °C
Cn1c(CCC(=O)O)nc(=O)c2ccccc21	200 to 202 °C
Oc1ccc2[nH]ncc2c1	184 to 186 °C
NC(=O)N1CCCC(C(=O)O)C1 (configuration not stated)	181 to 185 °C
Cn1cnnc1S(C)(=O)=O	132 to 134 °C
COC(=O)c1sc2nc(CCl)nc(Cl)c2c1C	125 to 127 °C
N#Cc1cc(F)c(S(=O)(=O)Cl)c(F)c1	92 to 94 °C
NNC(=S)NCC1CCC1	104 to 106 °C
CC(Oc1ccccc1F)C(=O)NN (configuration not stated)	64 to 66 °C
O[C@@H]1CCNC1	15 to 17 °C
CN(C)c1cc(C(=O)O)cc(Cl)n1	194 to 196 °C
C=CC(=O)Nc1cccc(C#N)c1	117 to 119 °C
COC(=O)c1ccc2c(Cl)ncnc2c1	104 to 106 °C
COc1cc(S(=O)(=O)Cl)ccc1[N+](=O)[O-]	75 to 77 °C
Cc1nn(C)c2ncc(CCl)cc12	171 to 173 °C
CNC(=O)c1cccc(Cl)n1	42 to 44 °C
CCNS(=O)(=O)c1ccccc1OC	84 to 86 °C
COc1ccc(OCc2cc(C(=O)O)c(C)o2)cc1	123 to 133 °C

Structure (SMILES)	melting point
O=c1cc(CCl)c2c(ccc3ccccc32)o1	119 to 120 °C
CC(=O)c1cc(C(=O)O)ccc1O	239 to 241 °C
O=C(O)C1CCN(C(=O)COc2ccccc2)CC1	73 to 75 °C
COc1cccc2[nH]cc(CCN)c12	119 to 121 °C
O=C(O)c1c[nH]nc1-c1ccc(F)cc1	302 to 304 °C
O=C(Nc1nncs1)C1CCNCC1	202 to 204 °C
O=C(O)c1cc(Cl)ncc1[N+](=O)[O-]	178 to 180 °C
O=S(=O)(Cl)Cc1ccc(Cl)nc1	59 to 61 °C
O=S(=O)(Cl)C=Cc1ccc(F)cc1	110 to 112 °C
CC(=O)NS(=O)(=O)Cl	92 to 94 °C
Cc1cccc2nc(CSc3ccccc3C(=O)O)cc(=O)n12	211 to 213 °C
O=C(O)c1cccc(CSc2cc(Cl)cc(Cl)c2)c1	147 to 149 °C
COC(=O)c1ccc(C)c(O)c1	119 to 121 °C
Nc1ccc2nc[nH]c(=O)c2c1	309 to 311 °C
COc1ccc(OC)c(S(=O)(=O)N2CCNCC2)c1	103 to 105 °C
O=C(O)c1cc(O)nc2ccc(S(=O)(=O)N3CCOCC3)cc12	304 to 306 °C
NC(=S)N1CCN(c2ccccn2)CC1	164 to 166 °C
O=S1(=O)CC(Cl)C(Cl)C1 (configuration not stated)	130 to 133 °C
Cc1cc(C)n(-c2ccc(C(N)=NO)cn2)n1	139 to 141 °C
CCc1ccc(C(C)=CC(=O)O)cc1	104 to 106 °C
COc1cc(-c2nnc(S)o2)cc(OC)c1OC	97 to 99 °C
CC(Cc1nnc(S)o1)c1ccccc1 (configuration not stated)	102 to 104 °C
Cc1ccc(S(=O)(=O)NCCN)s1	94 to 96 °C
O=C1CC(C(=O)O)C1	58 to 60 °C

Structure (SMILES)	melting point
CC(O)c1nc2ccccc2s1 (configuration not stated)	61 to 63 °C
O=C(Nc1ccc(O)cc1)c1cccc([N+](=O)[O-])c1	222 to 224 °C
CN(C)C(=O)c1ccc(S(N)(=O)=O)cc1	206 to 208 °C
NC(=O)CCn1ccc(N)n1	142 to 144 °C
CC(C)(C)OC(=O)N1CCC(C(=O)O)C1 (configuration not stated)	134 to 136 °C
O=C(O)c1ccccc1Nc1ccc(OC(F)F)cc1	153 to 155 °C
CC(C)(C)OC(=O)N1CCC2(CC1)CC2C(=O)NN (configuration not stated)	132 to 134 °C
CC1=CC(=O)N(c2ccccc2C(=O)O)C1=O	163 to 165 °C
NC(=NO)c1ccc(Br)o1	129 to 131 °C
COc1ccc(N2CCC(N)CC2)cc1	50 to 52 °C
Cc1ccc(N)cc1S(=O)(=O)Nc1cccc(Cl)c1	158 to 160 °C
CC1Cc2ccccc2N1S(=O)(=O)c1ccc(F)c(C(=O)O)c1 (configuration not stated)	200 to 202 °C
Cc1ccc(-c2cc(CS(=O)(=O)Cl)on2)cc1	119 to 121 °C
O=C(O)c1ccc(NS(=O)(=O)c2cccc([N+](=O)[O-])c2)cc1	267 to 269 °C
O=C(O)CNC1CCS(=O)(=O)C1 (configuration not stated)	241 to 243 °C
Nc1nc(Cl)c(Cl)c(N)c1Cl	206 to 208 °C
O=C(c1ccccc1)c1ccc(F)cn1	42 to 44 °C
CCOC(=O)C1CCC(=O)NC1 (configuration not stated)	66 to 68 °C
O=C(O)c1cccnc1SCc1cccc(Br)c1	186 to 188 °C
Nc1nnc(-c2cccs2)[nH]1	202 to 204 °C
Nc1nonc1C(=O)O	214 to 216 °C
CC(NC(=O)c1ccccc1N)c1ccccc1 (configuration not stated)	127 to 129 °C
Nc1ccc(F)c(NC(=O)Cn2cncn2)c1	194 to 196 °C
CC(N)Cc1cccc(O)c1 (configuration not stated)	45 to 47 °C

Structure (SMILES)	melting point
CC1CC1C(=O)Nc1ccc(F)cc1C(=O)O (configuration not stated)	173 to 175 °C
NNC(=O)NC1CC1	64 to 66 °C
Cc1[nH]c(C2CCCN2)nc1-c1ccccc1 (configuration not stated)	164 to 166 °C
Cc1noc2ncc(C(=O)O)cc12	229 to 231 °C
Cc1cccc(-c2nn(-c3ccccc3)cc2C(=O)O)c1	146 to 148 °C
O=C(O)c1cn(CC(=O)N2CCCC2)nn1	208 to 210 °C
CC(C)C(Br)C(=O)N(C)C1CCCCC1 (configuration not stated)	72 to 74 °C
Nc1ccc(Oc2ccncc2)cc1	160 to 162 °C
Cn1cc(S(=O)(=O)N2CCOCC2)cc1C(=O)NC(=O)CCl	229 to 231 °C
NC(=NO)c1cccnc1N1CCCCC1	149 to 151 °C
O=C(O)c1cccc(NS(=O)(=O)c2cc(Cl)ccc2Cl)c1	217 to 219 °C
CC(C)C(Br)C(=O)NCc1ccccc1F (configuration not stated)	104 to 106 °C
CN(CC(=O)O)C(=O)Nc1cccc([N+](=O)[O-])c1	157 to 159 °C
Nc1ccc(Cl)nc1N	129 to 131 °C
CC(=O)CC(=O)Nc1ccc2nc(C)sc2c1	129 to 131 °C
COC(=O)C(=O)CC(=O)c1ccc(OC)c(OC)c1	141 to 150 °C
OCc1c(Cl)nc(Cl)n1-c1ccccc1	139 to 141 °C
Cc1csc(Sc2c(N)cccc2Cl)n1	132 to 134 °C
N#Cc1cc(-c2ccccc2)c(-c2ccccc2)nc1Cl	129 to 131 °C
Cc1cccc2c1OCC2=O	83 to 85 °C
O=C(O)CN1C(=O)Cn2c(cc3ccccc32)C1=O	331 to 333 °C
NNC(=O)c1c(Cl)cccc1Cl	180 to 182 °C
